From ChEMBL document CHEMBL1138843, “Pyrazolo[1,5-a]pyrimidines: estrogen receptor ligands possessing estrogen receptor beta antagonist activity” (J Med Chem, 2004) come the findings set out here.

Assay [1] addresses T1, Estrogen receptor (Homo sapiens) (UniProt P03372).
T1 sequence (whole entry): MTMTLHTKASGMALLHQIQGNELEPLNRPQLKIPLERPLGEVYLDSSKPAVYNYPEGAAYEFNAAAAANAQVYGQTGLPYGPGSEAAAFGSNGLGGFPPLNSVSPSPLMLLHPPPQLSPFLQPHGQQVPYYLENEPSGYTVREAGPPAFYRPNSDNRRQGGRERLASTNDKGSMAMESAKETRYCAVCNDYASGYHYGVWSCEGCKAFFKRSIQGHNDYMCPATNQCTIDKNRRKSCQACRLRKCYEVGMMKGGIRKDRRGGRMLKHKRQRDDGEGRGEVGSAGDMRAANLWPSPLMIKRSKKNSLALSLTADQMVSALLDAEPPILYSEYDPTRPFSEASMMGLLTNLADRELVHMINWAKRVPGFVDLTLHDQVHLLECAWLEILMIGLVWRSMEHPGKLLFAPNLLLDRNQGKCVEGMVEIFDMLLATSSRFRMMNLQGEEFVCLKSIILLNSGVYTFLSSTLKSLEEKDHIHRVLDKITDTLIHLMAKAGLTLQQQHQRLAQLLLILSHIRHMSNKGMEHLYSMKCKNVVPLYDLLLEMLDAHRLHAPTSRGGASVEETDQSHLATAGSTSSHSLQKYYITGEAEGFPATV
Description: Relative binding affinity for human estrogen receptor 1 compared to [3H]estradiol (100%)

The target of assay [2] is Estrogen receptor beta (Homo sapiens) (UniProt Q92731).
Sequence of Estrogen receptor beta (Homo sapiens) (Q92731 whole entry): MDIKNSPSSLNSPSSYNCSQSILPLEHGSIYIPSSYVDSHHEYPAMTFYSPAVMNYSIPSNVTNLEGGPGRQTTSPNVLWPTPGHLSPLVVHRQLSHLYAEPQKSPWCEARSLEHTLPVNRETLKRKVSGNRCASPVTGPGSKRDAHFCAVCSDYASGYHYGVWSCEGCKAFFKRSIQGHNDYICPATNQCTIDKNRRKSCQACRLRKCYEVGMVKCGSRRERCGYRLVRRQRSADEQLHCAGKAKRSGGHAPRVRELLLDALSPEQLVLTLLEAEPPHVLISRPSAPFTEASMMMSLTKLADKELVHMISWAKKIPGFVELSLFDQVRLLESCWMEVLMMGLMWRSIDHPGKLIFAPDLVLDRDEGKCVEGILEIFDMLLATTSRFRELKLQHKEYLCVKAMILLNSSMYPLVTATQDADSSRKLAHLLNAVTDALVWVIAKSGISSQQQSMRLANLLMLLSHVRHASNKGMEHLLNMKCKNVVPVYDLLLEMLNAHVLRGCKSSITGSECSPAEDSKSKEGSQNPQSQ
Description: Relative binding affinity for human estrogen receptor 2 compared to [3H]estradiol (100%)
Further: unit not given here.

`Oc1ccc(-c2c(-c3cccc(O)c3)nn3cccnc23)cc1`: the Binding affinity in assay [1] and in assay [2] was less than 0.01 throughout.
For `Oc1ccc(-c2nn3c(-c4ccccc4)cc(-c4ccccc4)nc3c2-c2ccc(O)cc2)cc1`, the Binding affinity is 0.02 in assay [1] and 0.03 in assay [2].
On the same counts, the results for `Cc1cc(C)n2nc(-c3ccc(O)cc3)c(-c3ccc(O)cc3)c2n1` are 0.04 and 0.07.
With `Oc1ccc(-c2nn3c(-c4ccccc4)cc(-c4ccccc4)nc3c2-c2ccccc2)cc1`, the Binding affinity in assay [1] and in assay [2] was less than 0.01 throughout.
For the compound `CC(C)c1cc(C(C)C)n2nc(-c3ccc(O)cc3)c(-c3ccccc3)c2n1`, the Binding affinity in assay [1] turned out to be 0.14; in assay [2], 0.06.
Take `CCc1cc(CC)n2nc(-c3ccccc3)c(-c3ccccc3)c2n1`: the Binding affinity in assay [1] and in assay [2] was less than 0.01 throughout.
In the case of `Cc1cc(C)n2nc(-c3ccc(O)cc3)c(-c3cccc(O)c3)c2n1`, the Binding affinity in assay [1] and in assay [2] was less than 0.01 throughout.
For the compound `CCc1cc(CC)n2nc(-c3ccccc3)c(-c3ccc(O)cc3)c2n1`, the results for the Binding affinity in assay [1] and in assay [2] were 0.02 and 0.05, respectively.
For `Cc1c(C(C)(C)C)nc2c(-c3cccc(O)c3)c(-c3ccc(O)cc3)nn2c1C(C)(C)C` the same measures were 0.02 and 0.01.
On to `CC(C)c1cc(C(C)C)n2nc(-c3ccc(O)cc3)c(-c3cccc(O)c3)c2n1`, for which the Binding affinity in assay [1] was 0.01; in assay [2], less than 0.01.
For `c1ccc(-c2nn3cccnc3c2-c2ccccc2)cc1`, the Binding affinity in assay [1] and in assay [2] was less than 0.01 in each case.
As for `FC(F)(F)c1cc(C(F)(F)F)n2nc(-c3ccccc3)c(-c3ccccc3)c2n1`, the Binding affinity in assay [1] and in assay [2] was less than 0.01 in each case.
Consider `Oc1ccc(-c2c(-c3cccc(O)c3)nn3c(-c4ccccc4)cc(-c4ccccc4)nc23)cc1`, for which the Binding affinity in assay [1] and in assay [2] was less than 0.01 throughout.
As for `CC(C)c1cc(C(C)C)n2nc(-c3cccc(O)c3)c(-c3ccc(O)cc3)c2n1`, the figures for the Binding affinity in assay [1] and in assay [2] were less than 0.01 and 0.01, respectively.
In the case of `Oc1ccc(-c2nn3c(C(F)(F)F)cc(C(F)(F)F)nc3c2-c2cccc(O)c2)cc1`, the figures for the Binding affinity in assay [1] and in assay [2] were 0.04 and 0.08, respectively.
For the compound `Oc1ccc(-c2nn3c(C(F)(F)F)cc(C(F)(F)F)nc3c2-c2ccc(O)cc2)cc1`, the Binding affinity is 1.9 in assay [1] and 1.7 in assay [2].
For `Oc1ccc(-c2c(-c3ccccc3)nn3c(C(F)(F)F)cc(C(F)(F)F)nc23)cc1` the same measures were 0.01 and 0.05.
For `CC(C)c1cc(C(C)C)n2nc(-c3ccccc3)c(-c3ccc(O)cc3)c2n1`, the Binding affinity amounted to 0.01 in assay [1] and 0.05 in assay [2].
Take `Cc1nc2c(-c3ccc(O)cc3)c(-c3ccc(O)cc3)nn2c(C)c1C`: the Binding affinity in assay [1] and in assay [2] was 0.01 in each case.
Regarding `CCc1cc(CC)n2nc(-c3ccc(O)cc3)c(-c3ccccc3)c2n1`, the Binding affinity in assay [1] was found to be 0.13; in assay [2] it was 0.06.
Consider `Cc1nc2c(-c3ccccc3)c(-c3ccc(O)cc3)nn2c(C)c1C`, for which the results for the Binding affinity in assay [1] and in assay [2] were 0.01 and 0.02, respectively.
On to `Cc1cc(C)n2nc(-c3cccc(O)c3)c(-c3ccc(O)cc3)c2n1`, for which the Binding affinity in assay [1] and in assay [2] was less than 0.01 each time.
Consider `Oc1ccc(-c2nn3c(C(F)(F)F)cc(C(F)(F)F)nc3c2-c2ccccc2)cc1`, for which the Binding affinity turned out to be 0.39 in assay [1] and 0.41 in assay [2].
With `Cc1cc(C)n2nc(-c3ccc(O)cc3)c(-c3ccccc3)c2n1`, the Binding affinity in assay [1] was determined as 0.02; in assay [2], 0.11.
As for `Oc1ccc(-c2nn3cccnc3c2-c2cccc(O)c2)cc1`, the Binding affinity in assay [1] and in assay [2] was less than 0.01 in each case.
On to `Cc1c(C(C)(C)C)nc2c(-c3ccccc3)c(-c3ccc(O)cc3)nn2c1C(C)(C)C`, for which the Binding affinity in assay [1] is 0.83; in assay [2], 0.02.
On to `Oc1ccc(-c2c(-c3ccccc3)nn3cccnc23)cc1`, for which the results for the Binding affinity in assay [1] and in assay [2] were 0.01 and 0.05, respectively.
Regarding `Cc1nc2c(-c3cccc(O)c3)c(-c3ccc(O)cc3)nn2c(C)c1C`, the Binding affinity in assay [1] and in assay [2] was less than 0.01 in each case.
Regarding `Cc1cc(C)n2nc(-c3ccccc3)c(-c3ccc(O)cc3)c2n1`, the Binding affinity was 0.01 in assay [1] and 0.05 in assay [2].
On to `Cc1c(C(C)(C)C)nc2c(-c3ccc(O)cc3)c(-c3cccc(O)c3)nn2c1C(C)(C)C`, for which the Binding affinity in assay [1] and in assay [2] was less than 0.01 throughout.
Consider `Oc1ccc(-c2c(-c3cccc(O)c3)nn3c(C(F)(F)F)cc(C(F)(F)F)nc23)cc1`, for which the figures for the Binding affinity in assay [1] and in assay [2] were 0.01 and 0.04, respectively.
In the case of `Oc1ccc(-c2nn3c(-c4ccccc4)cc(-c4ccccc4)nc3c2-c2cccc(O)c2)cc1`, the Binding affinity in assay [1] and in assay [2] was less than 0.01 in each case.
With `Oc1ccc(-c2nn3cccnc3c2-c2ccc(O)cc2)cc1`, the figures for the Binding affinity in assay [1] and in assay [2] were less than 0.01 and 0.1, respectively.
On to `CCc1cc(CC)n2nc(-c3ccc(O)cc3)c(-c3cccc(O)c3)c2n1`, for which the Binding affinity in assay [1] and in assay [2] was less than 0.01 throughout.
On to `Cc1nc2c(-c3ccc(O)cc3)c(-c3ccccc3)nn2c(C)c1C`, for which the Binding affinity in assay [1] was less than 0.01; in assay [2], 0.01.
`Oc1ccc(-c2c(-c3ccccc3)nn3c(-c4ccccc4)cc(-c4ccccc4)nc23)cc1`: the Binding affinity in assay [1] and in assay [2] was less than 0.01 in each case.
Regarding `CCc1cc(CC)n2nc(-c3cccc(O)c3)c(-c3ccc(O)cc3)c2n1`, the Binding affinity in assay [1] and in assay [2] was less than 0.01 throughout.
For the compound `Cc1c(C(C)(C)C)nc2c(-c3ccc(O)cc3)c(-c3ccccc3)nn2c1C(C)(C)C`, the Binding affinity in assay [1] is less than 0.01; in assay [2], 0.01.
On the same counts, the results for `CCc1cc(CC)n2nc(-c3ccc(O)cc3)c(-c3ccc(O)cc3)c2n1` are 0.16 and 0.07.
On to `CC(C)c1cc(C(C)C)n2nc(-c3ccc(O)cc3)c(-c3ccc(O)cc3)c2n1`, for which the Binding affinity in assay [1] was 0.1; in assay [2], 0.07.
For `Cc1nc2c(-c3ccc(O)cc3)c(-c3cccc(O)c3)nn2c(C)c1C` the same measures were less than 0.01 and less than 0.01.
For `Cc1c(C(C)(C)C)nc2c(-c3ccc(O)cc3)c(-c3ccc(O)cc3)nn2c1C(C)(C)C` the same measures were 0.13 and 0.16.
Take `Oc1ccc(-c2nn3cccnc3c2-c2ccccc2)cc1`: the Binding affinity in assay [1] was less than 0.01; in assay [2], 0.02.
In the case of `Cc1cc(C)n2nc(-c3ccccc3)c(-c3ccccc3)c2n1`, the Binding affinity in assay [1] and in assay [2] was less than 0.01 throughout.
